Reference: EPA's ToxRefDB 2

Experiments:
dog [1] = conditions: Subchronic oral toxicity in nonrodent, beagle, Feed, dose end: 13 week, group: systemic, systemic / clinical chemistry / alanine aminotransferase (alt/sgpt) / alanine aminotransferase (alt/sgpt) + systemic / clinical chemistry / …
rat [2] = conditions: Combined chronic toxicity/carcinogenicity, wistar, Oral, Feed, dose end: 24 month, group: systemic
mouse [3] = conditions: Carcinogenicity, cd1, Oral, Feed, dose end: 18 month, group: systemic
dog [4] = conditions: Chronic toxicity; beagle; Oral; Feed; dose end: 53 week; group: systemic; systemic / pathology microscopic / stomach / [other] + systemic / pathology microscopic / stomach / inflammation
rat [5] = conditions: Subchronic dermal toxicity, sprague dawley, Topical, dose end: 90 day, group: systemic
rat [6] = conditions: Subchronic oral toxicity in rodents, sprague dawley, Gavage/Intubation, dose end: 13 week, group: systemic
primate = conditions: Chronic toxicity, macaque, Oral, Gavage/Intubation, dose end: 52 week, group: systemic
rat [7] = conditions: Multigenerational reproductive toxicity study, sprague dawley, Oral, Gavage/Intubation, dose end: 2 generation
mouse [8] = conditions: Carcinogenicity, cd1, Dermal, Topical, dose end: 18 month, group: systemic
rat [9] = conditions: Combined chronic toxicity/carcinogenicity, sprague dawley, Oral, Gavage/Intubation, dose end: 104 week, group: systemic
mouse [10] = conditions: Combined chronic toxicity/carcinogenicity, b6c3f1, Oral, Water, dose end: 52 week, group: systemic
rat [11] = conditions: Subchronic oral toxicity in rodents, sprague dawley, Water, dose end: 90 day, group: systemic
rat [12] = conditions: Subchronic oral toxicity in rodents, fischer, Feed, dose end: 13 week, group: systemic
dog [13] = conditions: Chronic toxicity; beagle; Oral; Feed; dose end: 52 week; group: systemic; systemic / clinical chemistry / creatinine / creatinine + systemic / clinical chemistry / urea nitrogen / urea nitrogen
dog [14] = conditions: Subchronic oral toxicity in nonrodent, beagle, Feed, dose end: 184 day, group: systemic, systemic / clinical chemistry / [other] / [other] + systemic / clinical chemistry / aspartate aminotransferase (ast/sgot) / aspartate …
mouse [15] = conditions: Combined chronic toxicity/carcinogenicity, other, Oral, Feed, dose end: 95 week, group: systemic
dog [16] = conditions: Subchronic oral toxicity in nonrodent, beagle, Feed, dose end: 228 day, group: systemic, systemic / pathology microscopic / kidney / eosinophilic focus + systemic / pathology microscopic / kidney / pigmentation + systemic / …
rat [17] = conditions: Prenatal developmental toxicity study, sprague dawley, Oral, Gavage/Intubation, dose end: 15 GD
rat [18] = conditions: Multigenerational reproductive toxicity study, sprague dawley, Oral, Feed, dose end: 2 generation
[19] = systemic / clinical chemistry / urea nitrogen / urea + systemic / clinical chemistry / phosphorus / phosphorus
[20] = systemic / clinical chemistry / chloride / chloride + systemic / hematology / erythrocyte (rbc) count differential / erythrocyte (rbc) + …
[21] = systemic / pathology microscopic / skeletal muscle / atrophy
[22] = systemic / pathology microscopic / skeletal muscle / atrophy + systemic / in life observation / body weight / body weight + systemic / in …
[23] = systemic / in life observation / body weight / body weight + systemic / in life observation / clinical signs / emesis
[24] = group: offspring, developmental / developmental landmark / eye opening / eye opening + developmental / developmental landmark / pinna unfolding / pinna …
[25] = group: parental, systemic / in life observation / clinical signs / salivation
[26] = group: reproductive, reproductive / offspring survival early / litter size / litter size
[27] = systemic / in life observation / body weight / body weight + systemic / in life observation / clinical signs / abnormal movements + systemic…
[28] = systemic / pathology microscopic / skeletal muscle / degeneration
[29] = systemic / pathology microscopic / skeletal muscle / degeneration + systemic / in life observation / body weight / body weight + systemic / …
[30] = systemic / organ weight / liver / absolute + systemic / organ weight / liver / relative to body weight + systemic / pathology microscopic / …
[31] = systemic / pathology microscopic / liver / adenoma + systemic / pathology microscopic / liver / hepatocellular carcinoma + systemic / organ …
[32] = systemic / in life observation / water consumption / water consumption + systemic / organ weight / kidney / relative to body weight + …
[33] = systemic / organ weight / spleen / absolute + systemic / pathology microscopic / liver / hypertrophy
[34] = systemic / pathology microscopic / kidney / degeneration + systemic / hematology / platelet / platelet + systemic / in life observation / …
[35] = group: developmental, developmental / developmental malformation / bone / brachycephaly + developmental / developmental malformation / bone / delayed ossification…
[36] = group: maternal, systemic / in life observation / clinical signs / [other] + systemic / in life observation / clinical signs / alopecia + systemic / in life …
[37] = group: offspring, developmental / developmental malformation / bone / exencephaly + developmental / developmental malformation / eye / ablepharia
[38] = group: offspring, developmental / developmental malformation / bone / exencephaly + developmental / developmental malformation / eye / ablepharia + …
[39] = group: parental, systemic / pathology microscopic / kidney / degeneration
[40] = group: parental, systemic / pathology microscopic / kidney / degeneration + systemic / in life observation / body weight / body weight + systemic / in life …

COC(=O)c1ccc(CNS(C)(=O)=O)cc1S(=O)(=O)NC(=O)Nc1nc(OC)cc(OC)n1 [Mesosulfuron-methyl]
LEL (dog [1]): 648 mg/kg/day
LOAEL (dog [1]): > 648 mg/kg/day
NEL (dog [1]): 348 mg/kg/day
NOAEL (dog [1]): ≥ 648 mg/kg/day
LEL (rat [2]; systemic / clinical chemistry / urea nitrogen / urea): 73.8 mg/kg/day
LOAEL (rat [2]; [19]): > 764 mg/kg/day
NEL (rat [2]; [19]): 7.46 mg/kg/day
NOAEL (rat [2]; [19]): ≥ 764 mg/kg/day
LOAEL (mouse [3]; [20]): > 1070 mg/kg/day
NEL (mouse [3]; [20]): 10.6 mg/kg/day
NOAEL (mouse [3]; [20]): ≥ 1070 mg/kg/day
LEL (mouse [3]; systemic / clinical chemistry / chloride / chloride + systemic / hematology / leukocyte (wbc) count differential / leukocyte (wbc)): 103 mg/kg/day
LEL (dog [4]): 574 mg/kg/day
LOAEL (dog [4]): 574 mg/kg/day
NEL (dog [4]): 155 mg/kg/day
NOAEL (dog [4]): 155 mg/kg/day

[Na+].[O-]n1ccccc1=S [Sodium pyrithione]
LOAEL (rat [5]; [21]): 15 mg/kg/day
NEL (rat [5]; [22]): 5 mg/kg/day
NOAEL (rat [5]; [22]): 5 mg/kg/day
LEL (rat [5]; systemic / pathology microscopic / skeletal muscle / atrophy + systemic / pathology gross / skeletal muscle / reduced size): 15 mg/kg/day
LEL (rat [6]; [21]): 2 mg/kg/day
LOAEL (rat [6]; [21]): 2 mg/kg/day
NEL (rat [6]; [22]): 0.5 mg/kg/day
NOAEL (rat [6]; [22]): 0.5 mg/kg/day
LEL (primate; [23]): 5 mg/kg/day
LOAEL (primate; [23]): 25 mg/kg/day
NEL (primate; [23]): < 5 mg/kg/day
NOAEL (primate; systemic / in life observation / body weight / body weight + systemic / in life observation / clinical signs / emesis + systemic / in life …): 5 mg/kg/day
LEL (rat [7]; [24]): 3.5 mg/kg/day
LOAEL (rat [7]; [24]): 3.5 mg/kg/day
NEL (rat [7]; [24]): 1.5 mg/kg/day
NOAEL (rat [7]; [24]): 1.5 mg/kg/day
LEL (rat [7]; [25]): 0.5 mg/kg/day
NEL (rat [7]; [25]): < 0.5 mg/kg/day
LOAEL (rat [7]; group: parental, systemic / pathology microscopic / skeletal muscle / atrophy): 1.5 mg/kg/day
NOAEL (rat [7]; group: parental, systemic / pathology microscopic / skeletal muscle / atrophy + systemic / in life observation / body weight / body weight + systemic / in …): 0.5 mg/kg/day
LOAEL (rat [7]; [26]): 3.5 mg/kg/day
NEL (rat [7]; [26]): 1.5 mg/kg/day
NOAEL (rat [7]; [26]): 1.5 mg/kg/day
LEL (rat [7]; group: reproductive, reproductive / offspring survival early / litter size / litter size + reproductive / reproductive performance / fertility / fertility + …): 3.5 mg/kg/day
LEL (mouse [8]; [27]): 2 mg/kg/day
NEL (mouse [8]; [27]): < 2 mg/kg/day
LOAEL (mouse [8]; systemic / in life observation / mortality / mortality + systemic / pathology microscopic / liver / hypertrophy): 20 mg/kg/day
NOAEL (mouse [8]; systemic / in life observation / mortality / mortality + systemic / pathology microscopic / lymph node / lymphoma malignant + systemic / in …): 2 mg/kg/day
LEL (rat [9]; [28]): 1.5 mg/kg/day
LOAEL (rat [9]; [28]): 1.5 mg/kg/day
NEL (rat [9]; [29]): 0.5 mg/kg/day
NOAEL (rat [9]; [29]): 0.5 mg/kg/day

O=C([O-])C(Cl)(Cl)Cl.[Na+] [Sodium trichloroacetate]
LOAEL (mouse [10]; [30]): > 267 mg/kg/day
NOAEL (mouse [10]; [30]): ≥ 267 mg/kg/day
LEL (mouse [10]; [31]): 133 mg/kg/day
NEL (mouse [10]; [31]): < 133 mg/kg/day
LOAEL (rat [11]; [32]): > 355 mg/kg/day
NOAEL (rat [11]; [32]): ≥ 355 mg/kg/day
LEL (rat [11]; [33]): 4.1 mg/kg/day
NEL (rat [11]; [33]): < 4.1 mg/kg/day

O=C(O)COc1nc(Cl)c(Cl)cc1Cl [Triclopyr]
LOAEL (rat [12]; systemic / pathology microscopic / kidney / degeneration): 20 mg/kg/day
NEL (rat [12]; [34]): 5 mg/kg/day
NOAEL (rat [12]; [34]): 5 mg/kg/day
LEL (rat [12]; systemic / pathology microscopic / kidney / degeneration + systemic / in life observation / body weight / body weight + systemic / in life …): 20 mg/kg/day
LEL (dog [13]): 2.5 mg/kg/day
LOAEL (dog [13]): 2.5 mg/kg/day
NEL (dog [13]): 0.5 mg/kg/day
NOAEL (dog [13]): 0.5 mg/kg/day
LEL (dog [14]): 2.5 mg/kg/day
LOAEL (dog [14]): 2.5 mg/kg/day
NEL (dog [14]): 0.5 mg/kg/day
NOAEL (dog [14]): 0.5 mg/kg/day
NEL (mouse [15]; systemic / in life observation / body weight / body weight + systemic / urinalysis / protein / protein + systemic / urinalysis / specific …): 2.5 mg/kg/day
NOAEL (mouse [15]; systemic / organ weight / kidney / absolute + systemic / organ weight / pituitary gland / absolute): 12.5 mg/kg/day
LOAEL (mouse [15]; systemic / organ weight / kidney / absolute + systemic / organ weight / pituitary gland / absolute + systemic / in life observation / body …): 62.5 mg/kg/day
LEL (mouse [15]; systemic / urinalysis / protein / protein + systemic / clinical chemistry / urea nitrogen / urea nitrogen + systemic / pathology gross / …): 12.5 mg/kg/day
LEL (dog [16]): 5 mg/kg/day
LOAEL (dog [16]): 5 mg/kg/day
NEL (dog [16]): < 5 mg/kg/day
NOAEL (dog [16]): < 5 mg/kg/day
LEL (rat [17]; [35]): 200 mg/kg/day
LOAEL (rat [17]; [35]): 200 mg/kg/day
NEL (rat [17]; [35]): 100 mg/kg/day
NOAEL (rat [17]; [35]): 100 mg/kg/day
LEL (rat [17]; [36]): 50 mg/kg/day
LOAEL (rat [17]; [36]): 50 mg/kg/day
NEL (rat [17]; [36]): < 50 mg/kg/day
NOAEL (rat [17]; [36]): < 50 mg/kg/day
LEL (rat [18]; [37]): 25 mg/kg/day
LOAEL (rat [18]; [37]): 25 mg/kg/day
NEL (rat [18]; [38]): 2 mg/kg/day
NOAEL (rat [18]; [38]): 2 mg/kg/day
LEL (rat [18]; [39]): 25 mg/kg/day
LOAEL (rat [18]; [39]): 25 mg/kg/day
NEL (rat [18]; [40]): 2 mg/kg/day
NOAEL (rat [18]; [40]): 2 mg/kg/day
LEL (rat [18]; [26]): 250 mg/kg/day
LOAEL (rat [18]; [26]): > 250 mg/kg/day
NEL (rat [18]; [26]): 25 mg/kg/day
NOAEL (rat [18]; [26]): ≥ 250 mg/kg/day
